Laboratory results from patent publication US5578643A, “Protective prostaglandins for use in conjunction with chemotherapeutic agents” (Loyola University of Chicago, priority 1994, dated 1996).

Tests used:
[1] = test system: mice given doxorubicin (DOX); experiment: Survival of mice (percent survival over 15 days) after doxorubicin, with or without prior prostaglandin; settings: n=16
Experimental: FIG. 1 is a graph illustrating percent survival of mice over 15 days as a function of the time interval (in hours) between the administration of misoprostol and the subsequent administration of doxorubicin. (The two curves represent duplicate experiments; 12 animals per experiment.)
FIG. 2 is a graph illustrating the percent survival of mice over 15 days following the administration of 0.5 mg of doxorubicin (open circles) and mice given 40 μg of misoprostol 2 hours before administration of 0.5 mg of doxorubicin (filled circles). (N=16 for each group).
FIG. 3 is a graph illustrating the percent survival of mice over 15 days following the administration of 0.75 mg of doxorubicin (open circles) and mice given 40 μg of misoprostol 2 hours before administration of 0.75 mg of doxorubicin (filled circles). (N=16 for each group).
Mortality of mice is a measure of PG-induced protection from death due to severe normal tissue injury inflicted by chemotherapy agents.
This assay was accomplished by injecting intraperitoneally (IP) separate groups of mice with a range of doses of chemotherapeutic agents. […] In some groups of mice, longevity was recorded by plotting the number of animals remaining alive (percent survival) versus time following the administration of the chemotherapeutic agent.
PG-induced protection from the toxic chemotherapeutic agents was measured by subcutaneous (SC) injection of the PG at various times prior to or after the IP administration of the chemotherapeutic agent. […] The time interval was varied from 15 minutes to 5 hours. The two curves represent two separate experiments with 20 mice in each experiment. The "0" time point is the percentage of mice that survived 15 days after administration of doxorubicin alone.

[2] = test system: mice given 5-fluorouracil; experiment: Survival of mice after 12.5 mg of 5-fluorouracil, with or without prior misoprostol; assay type: in vivo; settings: 40 μg misoprostol 2 hours before 12.5 mg of 5-fluorouracil; FIG. 4
Experimental: The toxicity of 12.5 mg of 5-fluorouracil alone to mice and the effectiveness of 40 μg of misoprostol given 2 hours prior to administration of 5-fluorouracil to protect from death due to 5-fluorouracil is shown in FIG. 4.

[3] = test system: mice given graded doses of doxorubicin (DOX); experiment: DOX dose response: dose killing 50% of the mice within 15 days, alone or after PG or WR-2721; assay type: in vivo; settings: 40 μg misoprostol SC 2 hours before graded doses of DOX; death within 15 days; FIG. 5
Experimental: The open triangle is data of a group of 10 mice given WR-2721, 30 minutes before administration of 0.75 mg of doxorubicin. (The lines are computer fit spline curves through the data; n=24 per data point on each curve).
(The lines are computer fit spline curves through the data; n=8 per data point for each of the PG-treated groups and n=24 for the data points of mice treated only with doxorubicin).
It was observed that all acute deaths due to DOX treatment alone occurred before day 15 following DOX administration. Subsequently, the parameter of death within 15 days was used to investigate the DOX dose response administered IP alone or 2 hours after 40 μg of misoprostol was given subcutaneously (sc). In this study, a dose of about 0.5 mg of DOX/average 30 gram mouse, killed 50% of the DOX treated mice (see FIG. 5).
A comparison of PG-induced protection was made to that of protection by WR-2721; an agent reported to protect from some chemotherapeutic agents. […] Two other PGs representing different structural prostaglandins than misoprostol were also investigated for their effectiveness in protecting mice from mortality resulting from administration of graded doses of DOX.

[4] = test system: white blood cells (WBCs) in the peripheral circulation; experiment: WBC counts and differential counts in peripheral blood of DOX treated mice; assay type: in vivo
Experimental: FIG. 7 is a graph illustrating the protective effect of misoprostol (given 2 hours before doxorubicin) on WBC counts compared to the effect of doxorubicin alone on WBC counts as function of time (in days). (The numbers 1 and 2 are duplicate studies.)
Death within 15 days of DOX treatment alone is most likely associated with bone marrow injury. […] DOX, therefore, appears to not only reduce the total WBC, but has a particularly marked effect on lymphocytes.

hair follicles = experiment: Hair count / hair loss (alopecia) caused by chemotherapeutic agents, 5 daily treatments; assay type: in vivo, mice; settings: 5 days
Experimental: Panel C is a representation of a photomicrograph of an animal given 40 μg of misoprostol, 2 hours before the 0.1 mg daily dose of doxorubicin given each day for 5 days.
(Data are the means of 6 mice (2 fields/mouse)±1 SEM.)
Amount of Hair Loss as a Measure of PG-induced Protection from Alopecia caused by Chemotherapeutic Agents.
One of the side effects of chemotherapy in cancer patients is hair loss or alopecia. Studies were conducted to measure a possible protective effect of PGs from alopecia caused by chemotherapeutic agents. […] The hairs on the rumps of mice (n=4/group) were plucked to induce a growth or anagen cycle within hair follicles which continues for about 18 days. […] Control groups (n=4) received no treatment or misoprostol alone.

hair medullary cells = experiment: Number of hair medullary cells four days after a single dose of chemotherapeutic agent, with or without misoprostol; assay type: in vivo, CF1 mice
Experimental: FIG. 13 is a representation of photographs of shafts of hair showing a single line of medullary cells in control mice (Panel A) and in mice 4 days after they were given a single dose of 0.3 mg of VP-16-213 (Panel B).
Number of Hair Medullary Cells as a Measure of Protection from Injury caused by Chemotherapeutic Agents.
The shafts of hair in CF1 mice contain usually a single line of about 50±1 medullary cells. These cells are very sensitive to cytotoxic agents (see Potten, C. S., Geng, L., and Taylor, P., Hair Medullary Cell Counts: a Simple and Sensitive Indicator of Radiation Exposure. Int. J Radiat. Biol., 57:13-21, 1990). Single doses of cytotoxic chemotherapeutic agents greatly reduce the number of medullary cells which reach a nadir at 4 days after administration of the agent. This cell system has been used for the evaluation of misoprostol-induced protection from several chemotherapeutic agents.
CF1 mice had hair from an area of their rump plucked to induce anagen growth as described in Example 2 above. […] In separate groups, mice received misoprostol (40 μg/average 30 g mouse) either subcutaneously or applied topically 2 hours before each of the chemotherapeutic agents listed above. Untreated controls were used since it has been previously determined that water, or 2% EtOH in water, or phosphate buffer at pH=6.8 (the vehicles for the all agents used) had no influence on the cell counts compared to untreated controls. Twenty-five hairs from each animal of each group were dissected from Feulgen stained samples taken from the mice 4 days after treatment.
The number of medullary cells was averaged (n=4) for each treatment group and the results for all chemotherapeutic agents tested to date are presented in Table I.

## CCCCC(C)(O)C/C=C/[C@H]1[C@H](O)CC(=O)[C@@H]1CCCCCCC(=O)OC (mixture of isomers) [misoprostol, (±)(16RS)-15-deoxy-16-hydroxy-16-methyl prostaglandin E1, methyl ester]
[1]; 40 μg misoprostol 2 hours before 0.75 mg of DOX, FIG. 3
  percent still alive by day 15, misoprostol before DOX: about 85%
[1]; 40 μg misoprostol SC 2 hours before 0.5 mg of doxorubicin, FIG. 2
  percent survival after 15 days, misoprostol before DOX: 100%
[2]
  protection of mice from death due to 5-fluorouracil: effective in protecting mice from damaging effects of 5-fluorouracil
[3]
  DOX dose required to kill 50% of the population of mice, after misoprostol: about 1.0 mg of DOX/average 30 gram mouse
[4]; 40 μg of misoprostol 2 hours before 0.5 mg of DOX, differential counts of peripheral blood
  percentage of lymphocytes, misoprostol before DOX: greater than 30%
[4]; misoprostol 40 μg/30 gram mouse 2 hours before DOX (0.5 mg/30 gram mouse), FIG. 7
  WBC counts, misoprostol before DOX: remained near control levels
Hair follicles; 40 μg misoprostol SC 2 hours before each daily 0.1 mg DOX, FIG. 9
  number of hairs, misoprostol + DOX: 213±7.8 hairs per 4.42 sq. mm
Hair follicles; 40 μg misoprostol SC 2 hours before each daily 1.0 mg cytoxan, FIG. 10
  number of hairs, misoprostol + CTX: 222+5.5 hairs per 4.42 sq. mm
Hair medullary cells; 40 μg SC 2 hrs before 5 FU (1.0 mg)
  Number of Medullar Cells ± 1 SEM, misoprostol subcutaneously: 37.4 ± 5.0
Hair medullary cells; 40 μg SC 2 hrs before ARA-C (8 mg)
  Number of Medullar Cells ± 1 SEM, misoprostol subcutaneously: 40.1 ± 0.7
Hair medullary cells; 40 μg SC 2 hrs before Bleomycin (0.05 mg)
  Number of Medullar Cells ± 1 SEM, misoprostol subcutaneously: 27.9 ± 1.2
Hair medullary cells; 40 μg SC 2 hrs before CTX (1 mg)
  Number of Medullar Cells ± 1 SEM, misoprostol subcutaneously: 33.1 ± 1.3
Hair medullary cells; 40 μg SC 2 hrs before Carboplatin (1.0 mg)
  Number of Medullar Cells ± 1 SEM, misoprostol subcutaneously: 31.2 ± 2.4
Hair medullary cells; 40 μg SC 2 hrs before Cisplatin (0.25 mg)
  Number of Medullar Cells ± 1 SEM, misoprostol subcutaneously: 14.3 ± 0.4
Hair medullary cells; 40 μg SC 2 hrs before DOX (0.3 mg)
  Number of Medullar Cells ± 1 SEM, misoprostol subcutaneously: 30.0 ± 1.1
Hair medullary cells; 40 μg SC 2 hrs before HU (10 mg)
  Number of Medullar Cells ± 1 SEM, misoprostol subcutaneously: 38.9 ± 0.7
Hair medullary cells; 40 μg SC 2 hrs before Methotrexate (0.2 mg)
  Number of Medullar Cells ± 1 SEM, misoprostol subcutaneously: 50.6 ± 0.6
Hair medullary cells; 40 μg SC 2 hrs before Mitomycin C (0.01 mg)
  Number of Medullar Cells ± 1 SEM, misoprostol subcutaneously: 38.2 ± 1.9
Hair medullary cells; 40 μg SC 2 hrs before Taxol (0.6 mg)
  Number of Medullar Cells ± 1 SEM, misoprostol subcutaneously: 26.0 ± 3.5
Hair medullary cells; 40 μg SC 2 hrs before VP-16-213 (0.3 mg)
  Number of Medullar Cells ± 1 SEM, misoprostol subcutaneously: 34.4 ± 1.1
Hair medullary cells; 40 μg topical 2 hrs before ARA-C (8 mg)
  Number of Medullar Cells ± 1 SEM, misoprostol topical: 43.1 ± 1.7
Hair medullary cells; 40 μg topical 2 hrs before Bleomycin (0.05 mg)
  Number of Medullar Cells ± 1 SEM, misoprostol topical: 28.1 ± 1.0
Hair medullary cells; 40 μg topical 2 hrs before CTX (1 mg)
  Number of Medullar Cells ± 1 SEM, misoprostol topical: 31.5 ± 2.2
Hair medullary cells; 40 μg topical 2 hrs before DOX (0.3 mg)
  Number of Medullar Cells ± 1 SEM, misoprostol topical: 27.0 ± 1.3
Hair medullary cells; 40 μg topical 2 hrs before HU (10 mg)
  Number of Medullar Cells ± 1 SEM, misoprostol topical: 40.7 ± 1.0
Hair medullary cells; 40 μg topical 2 hrs before Methotrexate (0.2 mg)
  Number of Medullar Cells ± 1 SEM, misoprostol topical: 46.7 ± 2.2
Hair medullary cells; 40 μg topical 2 hrs before VP-16-213 (0.3 mg)
  Number of Medullar Cells ± 1 SEM, misoprostol topical: 33.0 ± 1.6
Hair medullary cells; ARA-C, bleomycin, HU (misoprostol given systemically), cisplatin, carboplatin or 5-FU treated mice
  lack of protection of medullary cells: did not protect medullary cells
